Two compounds from patent US20150297619A1, “METHODS AND COMPOSITIONS FOR PRESERVING THE MUCOSAL BARRIER” (priority 2014, published 2015) can be followed below.

In one test the test system is intestinal villi cells. Put plainly: TUNEL labeling of ischemic intestine (apoptosis). Further details: species or system rat. To be noted: after 2 hrs ex vivo ischemia. The source says: To assess the level of apoptosis after ischemia, in situ terminal transferase dUTP nick end labeling (TUNEL) labeling was completed using a kit (Trevigen, Gaithersburg, Md.) according to manufacturer's instructions. Sections were counterstained with 0.05% toluidine blue in 1% boric acid to contrast 3,3′-diaminobenzidine (DAB) positive nuclei (brown) from negatively stained nuclei (blue). Prior to mounting, all slides were dehydrated (70, 95, 100% ethanol) and cleaned with xylene. After air-drying overnight, sections were mounted using Hard Set Mounting Media (Vector Laboratories, Burlingame, Calif.). Digital images were captured with a 20× objective (numerical aperture 0.5) and digitally montaged together after background subtraction.

Test [1] deals with MMP-9 dimers, pro-MMP-2, MMP-2, MMP-1 or MMP-3. Put plainly: Gelatin gel zymography of pre-ischemic intestinal homogenates renatured with inhibitor: MMP bands. The format is biochemical, rat. To be noted: inhibitor in renaturing and developing buffer: tranexamic acid 20 mM, doxycycline 1 mg/ml, GM-6001 1 ug/ml. On the procedure: Gelatin Gel Zymography—Segments 2 and 7 from pre-ischemic intestines were homogenized (0.1 g tissue/ml homogenization buffer; PBS pH 7.4 with 0.5% hexadecyltrimethyl bromide) and centrifuged at 1.4×10^4 g for 20 minutes. Supernatants were stored at −80° C. until samples were processed. To assess the proteolytic activities of individual proteases in intestinal tissue samples, sample volumes of 1 μl (with 2 μg of protein) were separated by gel electrophoresis in SDS-PAGE gels containing 80 μg/ml gelatin. […] The molecular weights of the proteases were estimated by use of a standard protein ladder (Invitrogen). Gels were digitized and bands were analyzed by densitometry in ImageJ (rsbweb.nih.gov/ij/). […] These gels were compared to a concurrently run gel processed normally.

Another test deals with 20 kDa serine proteases. The test is described as follows: Gelatin gel zymography of pre-ischemic intestinal homogenates renatured with inhibitor: serine protease bands. The format is biochemical, rat. To be noted: inhibitor in renaturing and developing buffer: tranexamic acid 20 mM, doxycycline 1 mg/ml, GM-6001 1 ug/ml. The protocol: Gelatin Gel Zymography—Segments 2 and 7 from pre-ischemic intestines were homogenized (0.1 g tissue/ml homogenization buffer; PBS pH 7.4 with 0.5% hexadecyltrimethyl bromide) and centrifuged at 1.4×10^4 g for 20 minutes. Supernatants were stored at −80° C. until samples were processed.
To assess the proteolytic activities of individual proteases in intestinal tissue samples, sample volumes of 1 μl (with 2 μg of protein) were separated by gel electrophoresis in SDS-PAGE gels containing 80 μg/ml gelatin. […] The molecular weights of the proteases were estimated by use of a standard protein ladder (Invitrogen). Gels were digitized and bands were analyzed by densitometry in ImageJ (rsbweb.nih.gov/ij/).
These gels were compared to a concurrently run gel processed normally.

Regarding `O=C[C@H](O)[C@@H](O)[C@H](O)[C@H](O)CO` [Glucose, glucose], in the test with intestinal villi cells, the “apoptosis (TUNEL labeling)” value is “little apoptosis in the villi”.

As to `NC[C@H]1CC[C@H](C(=O)O)CC1` [tranexamic acid], the “MMP gelatinase activity bands (220 kDa MMP-9 dimers, pro-MMP-2, MMP-2, 50 kDa band)” value in test [1] is “significantly reduce”. In addition, the “20 kDa serine protease activity bands” value with 20 kDa serine proteases is listed as “no significant effect”.
